Results from patent US20180147301A1, “SOLID ORAL COMPOSITION CONTAINING DYES” (COSMO TECHNOLOGIES LTD., priority 2016, published 2018).

Legend:
CYP 2D6 = CYP 2D6 (Homo sapiens, UniProt P10635)
CYP 2C19 = CYP 2C19 (Homo sapiens, UniProt P33261)
CYP 2B6 = target: T1, CYP 2B6 (Homo sapiens, UniProt P20813)
T1 sequence (P20813 1-491): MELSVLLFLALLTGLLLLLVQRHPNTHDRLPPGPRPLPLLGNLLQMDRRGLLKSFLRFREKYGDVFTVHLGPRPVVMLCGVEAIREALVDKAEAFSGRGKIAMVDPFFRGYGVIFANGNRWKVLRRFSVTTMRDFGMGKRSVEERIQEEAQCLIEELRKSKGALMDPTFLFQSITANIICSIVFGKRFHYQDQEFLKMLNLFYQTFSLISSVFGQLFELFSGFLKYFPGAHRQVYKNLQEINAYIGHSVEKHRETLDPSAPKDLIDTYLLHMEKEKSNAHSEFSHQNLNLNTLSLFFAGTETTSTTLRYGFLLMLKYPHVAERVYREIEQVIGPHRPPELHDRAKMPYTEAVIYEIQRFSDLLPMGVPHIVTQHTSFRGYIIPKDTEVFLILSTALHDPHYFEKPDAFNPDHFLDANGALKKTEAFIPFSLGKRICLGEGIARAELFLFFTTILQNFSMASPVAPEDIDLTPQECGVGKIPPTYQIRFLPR

P-gp [1] = target: T2, P-gp (Homo sapiens, UniProt P08183); assay: in vitro transporter substrate study; assay type: in vitro ADME
T2 sequence (P08183 whole entry): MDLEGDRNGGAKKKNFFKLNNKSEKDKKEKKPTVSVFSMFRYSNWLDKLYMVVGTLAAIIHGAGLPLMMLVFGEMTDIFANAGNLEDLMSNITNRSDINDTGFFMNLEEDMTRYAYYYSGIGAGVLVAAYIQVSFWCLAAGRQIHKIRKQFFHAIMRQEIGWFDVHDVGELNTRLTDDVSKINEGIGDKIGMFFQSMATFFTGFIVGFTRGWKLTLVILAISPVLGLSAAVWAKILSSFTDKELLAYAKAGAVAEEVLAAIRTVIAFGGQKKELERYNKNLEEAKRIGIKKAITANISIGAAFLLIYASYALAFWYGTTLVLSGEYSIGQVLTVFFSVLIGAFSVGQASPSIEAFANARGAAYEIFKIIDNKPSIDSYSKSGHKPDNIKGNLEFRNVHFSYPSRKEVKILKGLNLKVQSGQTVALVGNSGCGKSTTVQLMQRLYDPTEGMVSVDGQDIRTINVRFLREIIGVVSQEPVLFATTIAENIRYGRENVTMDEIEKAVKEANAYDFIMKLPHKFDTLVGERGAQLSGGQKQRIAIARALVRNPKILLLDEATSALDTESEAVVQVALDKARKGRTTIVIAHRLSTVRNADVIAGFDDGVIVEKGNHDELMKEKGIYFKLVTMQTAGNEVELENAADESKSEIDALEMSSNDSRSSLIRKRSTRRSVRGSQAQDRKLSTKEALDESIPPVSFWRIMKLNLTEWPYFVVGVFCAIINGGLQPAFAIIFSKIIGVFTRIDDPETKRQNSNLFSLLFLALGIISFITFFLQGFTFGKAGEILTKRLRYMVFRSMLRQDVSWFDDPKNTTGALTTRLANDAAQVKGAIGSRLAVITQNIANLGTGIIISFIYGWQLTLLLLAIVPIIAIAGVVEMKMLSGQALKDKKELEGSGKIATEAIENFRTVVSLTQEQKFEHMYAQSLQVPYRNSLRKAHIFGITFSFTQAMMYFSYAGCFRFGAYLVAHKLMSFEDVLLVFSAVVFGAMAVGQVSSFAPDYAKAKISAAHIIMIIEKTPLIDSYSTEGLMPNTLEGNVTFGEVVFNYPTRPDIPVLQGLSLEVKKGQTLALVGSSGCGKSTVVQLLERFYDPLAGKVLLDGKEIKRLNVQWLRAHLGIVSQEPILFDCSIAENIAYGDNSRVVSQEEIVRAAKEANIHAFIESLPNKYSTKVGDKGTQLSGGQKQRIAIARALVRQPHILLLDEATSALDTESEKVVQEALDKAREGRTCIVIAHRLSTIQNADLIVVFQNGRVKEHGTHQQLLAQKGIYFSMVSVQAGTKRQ

P-gp [2] = target: T2, P-gp; assay: in vitro transporter inhibition study; assay type: in vitro ADME
CYP 2C8 = target: T3, CYP 2C8 (Homo sapiens, UniProt P10632)
T3 sequence (P10632 1-490): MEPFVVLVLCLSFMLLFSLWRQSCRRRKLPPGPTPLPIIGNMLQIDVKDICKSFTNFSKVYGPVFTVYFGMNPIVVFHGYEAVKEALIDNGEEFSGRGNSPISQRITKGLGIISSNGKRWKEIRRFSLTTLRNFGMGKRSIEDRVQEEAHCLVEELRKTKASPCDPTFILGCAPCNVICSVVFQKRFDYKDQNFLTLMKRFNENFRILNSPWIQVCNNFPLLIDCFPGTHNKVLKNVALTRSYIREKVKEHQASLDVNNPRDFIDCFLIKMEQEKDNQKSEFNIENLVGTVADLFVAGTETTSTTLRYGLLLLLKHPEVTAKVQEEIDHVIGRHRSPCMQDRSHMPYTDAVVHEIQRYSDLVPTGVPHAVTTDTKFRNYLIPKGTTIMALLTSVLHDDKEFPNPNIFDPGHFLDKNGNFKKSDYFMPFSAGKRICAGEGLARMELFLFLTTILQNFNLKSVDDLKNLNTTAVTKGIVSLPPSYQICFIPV

CYP 2C9 = CYP 2C9 (Homo sapiens, UniProt P11712)
Sequence of CYP 2C9 (P11712 whole entry): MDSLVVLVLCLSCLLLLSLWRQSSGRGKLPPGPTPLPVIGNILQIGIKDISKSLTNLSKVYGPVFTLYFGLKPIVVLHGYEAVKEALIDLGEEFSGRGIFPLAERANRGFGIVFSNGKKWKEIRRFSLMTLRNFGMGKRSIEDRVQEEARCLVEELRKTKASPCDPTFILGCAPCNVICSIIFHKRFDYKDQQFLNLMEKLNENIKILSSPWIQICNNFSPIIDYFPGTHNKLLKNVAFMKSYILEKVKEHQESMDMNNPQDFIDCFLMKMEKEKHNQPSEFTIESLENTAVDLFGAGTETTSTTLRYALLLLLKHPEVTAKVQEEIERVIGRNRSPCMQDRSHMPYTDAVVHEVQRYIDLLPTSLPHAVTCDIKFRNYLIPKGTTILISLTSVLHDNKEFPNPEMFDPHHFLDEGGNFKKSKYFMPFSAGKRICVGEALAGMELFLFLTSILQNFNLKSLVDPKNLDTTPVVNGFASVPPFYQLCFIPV

CYP 1A2 = target: T4, CYP 1A2 (Homo sapiens, UniProt P05177)
T4 sequence (P05177 1-516): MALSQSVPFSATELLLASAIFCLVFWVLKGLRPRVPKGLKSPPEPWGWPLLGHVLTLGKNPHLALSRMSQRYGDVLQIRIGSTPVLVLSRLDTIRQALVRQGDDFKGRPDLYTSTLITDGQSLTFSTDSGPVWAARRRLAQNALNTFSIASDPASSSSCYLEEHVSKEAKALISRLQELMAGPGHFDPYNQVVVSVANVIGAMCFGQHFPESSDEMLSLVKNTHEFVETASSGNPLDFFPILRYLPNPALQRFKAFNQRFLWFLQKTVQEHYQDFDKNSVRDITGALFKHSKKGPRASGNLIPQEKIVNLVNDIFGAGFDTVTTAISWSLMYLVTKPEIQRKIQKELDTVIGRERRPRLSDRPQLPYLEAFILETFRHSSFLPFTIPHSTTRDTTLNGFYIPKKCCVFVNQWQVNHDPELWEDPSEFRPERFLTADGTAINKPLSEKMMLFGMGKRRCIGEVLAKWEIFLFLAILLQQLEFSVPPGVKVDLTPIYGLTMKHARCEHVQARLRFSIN

Sequence of CYP 2C19 (P33261 whole entry): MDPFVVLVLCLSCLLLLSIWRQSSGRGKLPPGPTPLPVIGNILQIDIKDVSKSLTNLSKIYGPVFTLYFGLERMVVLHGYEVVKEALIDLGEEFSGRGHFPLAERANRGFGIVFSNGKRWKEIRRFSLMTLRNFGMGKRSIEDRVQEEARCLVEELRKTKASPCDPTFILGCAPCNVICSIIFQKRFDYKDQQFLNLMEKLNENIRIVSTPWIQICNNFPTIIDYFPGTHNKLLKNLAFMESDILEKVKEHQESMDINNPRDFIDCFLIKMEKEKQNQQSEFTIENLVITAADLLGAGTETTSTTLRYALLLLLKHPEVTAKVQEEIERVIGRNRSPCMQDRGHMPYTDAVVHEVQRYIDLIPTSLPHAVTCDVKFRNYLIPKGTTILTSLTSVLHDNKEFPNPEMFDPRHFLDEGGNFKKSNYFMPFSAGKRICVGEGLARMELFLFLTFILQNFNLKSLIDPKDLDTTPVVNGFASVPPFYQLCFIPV
Sequence of CYP 2D6 (P10635 whole entry): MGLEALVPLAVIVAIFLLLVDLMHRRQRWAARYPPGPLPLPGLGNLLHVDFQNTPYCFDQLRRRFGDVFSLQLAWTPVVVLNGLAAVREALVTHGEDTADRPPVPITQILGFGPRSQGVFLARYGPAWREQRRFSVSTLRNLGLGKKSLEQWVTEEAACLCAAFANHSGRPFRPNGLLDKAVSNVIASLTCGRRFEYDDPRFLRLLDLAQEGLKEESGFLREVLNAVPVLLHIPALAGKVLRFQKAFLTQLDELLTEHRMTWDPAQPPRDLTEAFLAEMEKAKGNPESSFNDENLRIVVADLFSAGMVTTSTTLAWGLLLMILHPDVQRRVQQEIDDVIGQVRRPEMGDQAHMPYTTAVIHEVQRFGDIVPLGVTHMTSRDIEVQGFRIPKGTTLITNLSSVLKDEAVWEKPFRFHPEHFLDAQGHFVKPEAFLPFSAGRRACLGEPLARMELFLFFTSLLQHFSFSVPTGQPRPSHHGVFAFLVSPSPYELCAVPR

inhibition of CYP isozyme 2D6 (CYP 2D6): inhibits
inhibition of CYP isozyme 2C19 (CYP 2C19): inhibits
inhibition of CYP isozyme 2B6 (CYP 2B6): inhibits
substrate of membrane transport protein P-gp (P-gp [1]): possible substrate
inhibition of CYP isozyme 3A4/5 (CYP 3A4/5): inhibits
inhibitor of P-gp (P-gp [2]): weak inhibitor
inhibition of CYP isozyme 2C8 (CYP 2C8): inhibits
inhibition of CYP isozyme 2C9 (CYP 2C9): inhibits
inhibition of CYP isozyme 1A2 (CYP 1A2): inhibits
SMILES: CN(C)c1ccc2nc3ccc(=[N+](C)C)cc-3sc2c1 [Methylene blue, Methylthioninium Chloride (Methylene Blue)]
